Laboratory results: US20200038392A1, “TOPICAL COMPOSITIONS AND METHODS OF PREPARATION AND USE” (Aldeyra Therapeutics, Inc., priority 2018, published 2020)
≈ marks a conversion by molar mass, not a printed value. Where two headings read alike, the source gives them in different places.

How the values were obtained:
[1] = assay type: physicochemical
Text: It is important to note that the comparison formulation has a nominal ADX-102 concentration of 1.0% w/w, which was higher than that observed in the aqueous phase of the comparison formulation (0.31% w/w). […] However, it is possible that oil phase excipients may assist in solubilizing ADX-102, allowing it to partition between phases.

[2] = ADX-102 oxidation investigation: peroxide spiking (H2O2, NMP) and high temperature stress in PEG 400; assay type: physicochemical; settings: both peroxide spiking experiments (H2O2 and NMP); t=48 h at 70° C.
Protocol: A preliminary study was performed in an attempt to degrade ADX-102 to a suitable level such that oxidation products observed during long-term stability could be detected. To this end, an ADX-102 in PEG 400 stock solution (0.1% w/w) was prepared and degraded with hydrogen peroxide (H2O2) and N-methylpyrrolidone (NMP) at 0.1 and 1.0% w/w concentrations, respectively. Additionally, the stocks were stressed at 40 and 70° C. to increase degradation. […] Sufficient degradation of ADX-102 was observed following spiking with […] H2O2 and storage at 70° C. for 48 h condition and was therefore considered suitable for use in antioxidant/stabilizer selection experiments described below.

[3] = Saturated solubility of ADX-102 in DoE solvent systems; assay type: physicochemical; settings: solvent system SS26; range in brackets
Protocol: Following the visual assessment of placebo formulations, a DoE mixture design for ADX-102 aqueous phase solvent systems was prepared, as shown in Table 22. This was performed in order to assess the solubility of ADX-102 in solvent systems and to confirm that at least a 1.0% w/w and a 5% w/w concentration of ADX-102 in the aqueous phase of the formulation was obtainable. The following excipient levels were assessed during the solvent system DoE experiments: • Water: 0-50% • Transcutol® HP: 0-20% • SR PEG 400: 0-60% • Ethanol: 0-20% • Propylene glycol: 0-15%
SS19, along with SS20 (SS21 was not used due to the high levels of Transcutol® HP), were used as a base for further solvent system development. SS23-SS26 were prepared, broadly based on these systems, with varying levels of excipient and added antioxidant/stabilizer, and preservative. The compositions of these solvent systems are detailed in Table 25. Additionally, penetration enhancers were varied in the developed solvent system, with SS23 (based on SS19) including no Transcutol® and SS25 including diisopropyl adipate, and in the case of SS24, a humectant (glycerol). It should be noted that SS25 became turbid following the addition of diisopropyl adipate.
The solvent system SS26 was developed in order to manufacture a 5% w/w formulation. […]

[4] = Super-refined PEG 400 versus non-refined PEG 400: saturated solubility and chemical stability of ADX-102; assay type: physicochemical; settings: in PEG 400 (non-super refined)
Protocol: The use and requirement of non-super refined PEG 400 as an excipient was investigated in view of to the higher cost of SR PEG 400. Saturated solubility and chemical stability of ADX-102 in PEG 400 (non-super refined) was performed as described above.

[5] = Solubility of ADX-102 in potential receiver fluid systems; assay type: physicochemical; settings: aqueous with cosolvent or surfactant or cyclodextrin
Protocol: The solubility of the drug in a range of receiver fluid systems was determined to ensure that drug release was not limited by the solubility of ADX-102 in the receptor compartment of Franz cells. The receiver fluids selected for investigation were: ethanol and water (50:50 v/v), 2% Brij 98 in ethanol and water (50:50 v/v), 20% PEG in water, 20% PEG 400 in ethanol and water (50:50 v/v) and 2% Tween 80 in water. The findings are summarized below.

Saturated solubility [1]: 0.31 % w/w | solubility [1]: 0.31% | ADX-102 remaining after degradation [2]: < 70% | ADX-102 saturated solubility (% w/w) [3]: 6.85 (6.84-6.86) % w/w | Saturated solubility [4]: > 20.00 % w/w | solubility ([5]; receiver fluid 1: Ethanol and water (50:50 v/v)): 23.5 mg/mL (≈ 99.5 mM) | solubility ([5]; receiver fluid 1: ethanol and water (50:50 v/v)): 23.6 mg/mL (≈ 99.5 mM) | solubility ([5]; receiver fluid 2: 2% Brij 98 in ethanol and water (50:50 v/v)): 28.3 mg/mL (≈ 120 mM) | solubility ([5]; receiver fluid 3: 20% PEG 400 in water): 1.31 mg/mL (≈ 5.53 mM) | solubility ([5]; receiver fluid 4: 20% PEG 400 in ethanol and water (50:50 v/v)): 20.5 mg/mL (≈ 86.4 mM) | solubility ([5]; receiver fluid 5: 2% Tween 80 in water): 26.3 mg/mL (≈ 111 mM) | solubility ([5]; receiver fluid systems for Franz cells, range over the investigated receiver fluid systems): 1.31 to 28.4 mg/mL (≈ 5.53 to 120 mM)
Structure (SMILES): CC(C)(O)c1nc2ccc(Cl)cc2cc1N [ADX-102, 2-[3-amino-6-chloro-quinolin-2-yl]-propan-2-ol]
